Test results from article PMC4313117, “Elabela-Apelin Receptor Signaling Pathway is Functional in Mammalian Systems” (Scientific Reports, 2015).

What was measured:
HUVECs = experiment: In vitro angiogenesis (tubular formation) assay in HUVECs; format: cell-based, human; conditions: for increase in number of branch points: HUVECs on Geltrex, counted after 10 hr; for increase in number of branch points / increase in tubular formation, APJ-overexpressing HUVECs: n = 5
Excerpt: ELA is a secreted hormone and expressed in adult kidney and prostate, and may, therefore, circulate in blood. Since ELA is required for normal development of cardiovascular system, blood vessel could be a target of ELA action. Vascular tube formation assay is a well-used in vitro study to assess angiogenic factors and conditions in which vascular cells, [e.g. human umbilical vascular endothelial cells (HUVECs)], can form tube-like structures under pro-angiogenic conditions in culture wells coated with Geltrex containing extra-cellular matrix. The number of branch points is used as an indicator for the strength of angiogenic stimuli.
Figure 4 Stimulation of tubule-like structure by ELA-APJ signaling. […] (B), Reverse transcription PCR of human APJ expression of HUVECs infected with APJ or APJ siRNA lentiviral constructs.
Tubular formation assay for angiogenesis was conducted in 96-well plates which were coated with 50 μl of Geltrex (Life Technologies, A14133-02) and left for polymerization by incubation for 1 hr at 37°C. […] Quantification of the tubular formation was performed after 10 hr of culture by calculating the number of branching point formed in each well under an inverted phase contrast photomicroscope (Olympus IX50), as described.

mouse aortic rings = experiment: Vasorelaxation of U46619-contracted mouse aortic rings; parameters: species or system mouse (C57BL/6)
Excerpt: Changes in tension were expressed as the percentage decrease in reference to precontraction tension. […] Values are means ± SEM. (n = 5–10). **p < 0.01, compared to aortas with endothelium at the same concentration points of the compound.
Aortas were isolated from 8–10 weeks male wild-type C57BL/6 mice, cut into 3-mm rings and mounted in organ chambers (PowerLab, AD Instruments, CO, USA) in Kreb's buffer as described previously. The contractile response was elicited by vasoconstrictor U46619 (30 nM) to produce contraction. […] In some preparations, the endothelium was mechanically removed from denuded arteries by gentle rubbing off the intimal surface with a wooden stick.

APJ = conditions: zebrafish studies; cited from earlier work
Excerpt: ELA deficiency leads to severe defects in heart development and lymphogenesis. ...

[1] = tested on: vascular tone; blood pressure; conditions: cited from earlier work
Protocol: The aortic rings were induced to contraction with vasoconstrictor U46619 (final concentration, 30 nM).

[2] = tested on: mouse heart failure model of coronary artery ligation; conditions: cited from earlier work
Excerpt: Apelin was considered the only endogenous ligand for APJ since isolation of the apelin peptide. Apelin is expressed in multiple tissues including adipose tissue, heart, vasculature, brain and kidney, whereas APJ is more broadly expressed in tissues such as heart, blood vessels and adipose tissue. […] At the receptor level, APJ is a GPCR coupled to Gi and/or Gq[15][16]. Activation of APJ results in biochemical responses i ... || Recently, the therapeutic potential of apelin as a reagent for heart failure has been increasingly recognized.

human saphenous vein = conditions: cited from earlier work

In the case of CSCC[C@H](NC(=O)[C@@H](NC(=O)[C@H](CC(C)C)NC(=O)[C@H](CC(N)=O)NC(=O)[C@@H](NC(=O)[C@@H]1CCCN1C(=O)[C@H](CCCNC(=N)N)NC(=O)[C@@H](N)CCC(N)=O)C(C)C)[C@@H](C)O)C(=O)N[C@@H](CCCNC(=N)N)C(=O)N[C@@H](CCCNC(=N)N)C(=O)N[C@@H](CCCCN)C(=O)N[C@@H](CC(C)C)C(=O)N[C@@H](CCCNC(=N)N)C(=O)N[C@@H](CCCCN)C(=O)N[C@@H](Cc1c[nH]cn1)C(=O)N[C@@H](CC(N)=O)C(=O)N[C@H]1CSSC[C@@H](C(=O)N[C@@H](CCSC)C(=O)N2CCC[C@H]2C(=O)N[C@@H](CC(C)C)C(=O)N[C@@H](Cc2c[nH]cn2)C(=O)N[C@@H](CO)C(=O)N[C@@H](CCCNC(=N)N)C(=O)N[C@H](C(=O)N2CCC[C@H]2C(=O)N[C@@H](Cc2ccccc2)C(=O)N2CCC[C@H]2C(=O)O)C(C)C)NC(=O)[C@H](CCCNC(=N)N)NC(=O)[C@H](CCCNC(=N)N)NC(=O)[C@H](CCC(N)=O)NC(=O)[C@H](CC(C)C)NC1=O [ELA], the “tubular formation, APJ-knock down HUVECs” value (HUVECs; ELA 0.1 μM, APJ siRNA) is reported as “not effective in inducing the formation of tubular structures”, the “increase in number of branch points” value (HUVECs; ELA 0.1 μM) is reported as 71.9% and the “increase in tubular formation, APJ-overexpressing HUVECs” value (HUVECs; ELA 0.1 μM, compared to empty vector control cells with ELA) is reported as 63.3%. For the same compound, the “increase in tubular formation, APJ-overexpressing HUVECs” value (HUVECs; ELA 0.1 μM, compared to empty vector control cells without ELA) was 190.2%, the “increase in number of branch points” value (HUVECs; ELA 0.5 μM) was 222.8% and the “increase in number of branch points” value (HUVECs; ELA 1 μM) was 266.7%. The “relaxation with L-NAME pretreatment” value (mouse aortic rings; 1 mM L-NAME for 30 min, then U46619, followed by ELA) was “No significant difference was observed between the L-NAME-treated and non-treated vessels”, the “maximum relaxation, endothelium-intact vessels” value (mouse aortic rings; U46619 30 nM precontraction, ELA 10^−9 to 10^−6 M cumulative, n = 5–10) was 73.7% and the “decrease in relaxation in denuded vs intact vessels” value (mouse aortic rings; endothelium-denuded, ELA at corresponding concentrations, n = 5–10) was ~ 20%. For the same compound, the “binding and activation of APJ” value (APJ) was “binds and activates APJ”.

In the case of apelin, the vascular tone [1] is given as “relax vascular tone”, the vasodilatory effect [1] is given as “a vasodilatory effect of apelin is reported” and the blood pressure ([1]; no ref number printed at this statement) is given as “lower blood pressure”. For the same compound, the “vasoconstriction in denuded vessels” value ([1]; vessels denuded of endothelium) was “vasoconstriction is also noted”, the “cardiac protection, contractility, infarction size, stem cell mobilization” value ([2]; mouse heart failure model of coronary artery ligation) was “have cardiac-protective effect and can increase heart contractility, reduce infarction size and promote cardiac stem cell mobilization to the infarct area” and the cardioprotective effect ([2]; various animal models, infusion) was “appears to have cardioprotective effect in various animal models”. The vasoconstriction (human saphenous vein) was “vasoconstriction is also noted in human saphenous vein”.

With CC(=O)OCC[N+](C)(C)C [acetylcholine] the “relaxation by acetylcholine (control of endothelium removal and NOS inhibition)” value (mouse aortic rings; endothelium-denuded or L-NAME-treated arteries) was “inability of acetylcholine to relax the arteries”.

With apelin-13 the “reduction of relaxing effect by removal of endothelium” value (mouse aortic rings; apelin-13, denuded vs intact vessels, n = 5–10) was 48%, the “relaxation, denuded vessels” value (mouse aortic rings; apelin-13, endothelium-denuded, U46619 30 nM precontraction, n = 5–10) was 31% and the “maximum relaxation, endothelium-intact vessels” value (mouse aortic rings; apelin-13 at 10^−6 M, U46619 30 nM precontraction, n = 5–10) was 79%.
